Assay results: US10787651B2, “Bradyrhizobium monooxygenase and use thereof for preparation of chiral sulfoxide” (JIANGSU AOSAIKANG PHARMACEUTICAL CO., LTD., priority 2018, dated 2020)

Experiments:
[1] = test system: Bradyrhizobium oligotrophicum ECU1212 resting cells; assay: Asymmetric oxidation of thioethers by whole resting cells; type: cell-based; settings: substrate 0.1 g/L, catalyst loading 10 g/L, 30° C., 180 rpm
Method: Optionally, resting cells harvested from the culture of Bradyrhizobium oligotrophicum ECU1212 are used to asymmetrically catalyze the oxidation of lansoprazole thioether to prepared (R)-lansoprazole under the conditions that the thioether substrate concentration is 0.1 g/L, the catalyst loading is 10 g/L, and the reaction is carried out at 30° C. under stirring at 180 rpm. The conversion rate of lansoprazole thioether can be up to 80%, and the optical purity can be up to 99% ee(R). it can be seen that the Bradyrhizobium oligotrophicum ECU1212 comprises functional enzyme(s) which serve to asymmetrically catalyze the oxidation and have a high catalytic conversion rate. Thus, it can solve the problem that the conventional bio-catalysts have low conversion rate in the asymmetric catalytic oxidation process. […]
To 100 ml Tris-HCl buffer (100 mmol/L, pH 9.0) was added 1 g of Bradyrhizobium oligotrophicum ECU1212 lyophilized cells (lyophilized cells prepared in accordance with Example 2), and thioanisole and methanol were added to a final concentration of 37 g/L, 10% (v/v). […] Then, the residue was dissolved in 0.5 ml isopropanol, and the solution was analyzed in accordance with the method of Example 7 for the conversion of reaction and the ee value of product. […]

[2] = test system: Recombinant BoTEMO; assay: Asymmetric oxidation of thioethers by recombinant BoTEMO crude enzyme with glucose dehydrogenase recycling; type: biochemical, Bradyrhizobium oligotrophicum ECU1212; settings: 0.2 g crude enzyme powders in 10 ml, 2 g/L substrate, 25° C., 24 h
Method: The analysis is carried out with a high performance liquid chromatograph (HPLC) under the conditions of: a chiral OD-H column ([…], 5 μm particle size, Daicel), a mobile phase of n-hexane:isopropanol=93:7, a flow rate of 1 ml/min, and UV detection at 254 nm; or an AS-H column (250 mm×4.6 mm, 5 μm particle size, Daicel), a mobile phase of n-hexane:isopropanol=55:45, a flow rate of 0.5 mL/min, and UV detection at 254 nm.
To 0.5 ml potassium phosphate buffer (100 mmol/L, pH 9.0) was added 100 μL of crude enzyme solution of BoTEMO (the crude enzyme solution in accordance with the method of Example 5) and a crude enzyme solution of glucose dehydrogenase, and thioanisole, methanol, NADP^+ and glucose were added to the final concentration of 2 mmol/L, 10% (v/v), 0.2 mmol/L and 3.6 g/L, respectively. At 25° C. and 1000 rpm, the mixture was shaken for 1 h. After completion of reaction, 0.6 ml of ethyl acetate was added for extraction. The extract was dried over anhydrous sodium sulfate, and evaporated to remove the solvent. Then, the residue was dissolved in 0.5 ml of isopropanol. The mixture was analyzed in accordance with the method of Example 7 for measure the conversion of reaction and the ee value of product. The conversion of reaction was above 99%, and the ee value of product was above 99% (S).
To 0.5 ml of potassium phosphate buffer (100 mmol/L, pH 9.0) was added 100 μL crude enzyme solution of BoTEMO (the crude enzyme solution prepared in accordance with the method of Example 5) and a crude enzyme solution of glucose dehydrogenase, and omeprazole thioether, methanol, NADP^+ and glucose were added to the final concentrations of 0.2 mmol/L, 10% (v/v), 0.2 mmol/L and 3.6 g/L, respectively. At 25° C. and 1000 rpm, the mixture was shaken for 1 h. After completion of reaction, 0.6 ml of ethyl acetate was added for extraction. […] Then, the residue was dissolved in 0.5 ml isopropanol, and the solution was analyzed in accordance with the method of Example 7 for measuring the conversion of reaction and the ee value of product. […]
To 10 ml of potassium phosphate buffer (100 mmol/L, pH 9.0) was added 0.1 g of lyophilized crude enzyme powders of BoTEMO (crude enzyme powders prepared in accordance with the method of Example 5) and 0.02 g of lyophilized crude enzyme powder of glucose dehydrogenase (15 U/mg), and 1-3 g/L of omeprazole thioether/lansoprazole thioether/pantoprazole thioether/rabeprazle thioether/ilaprazole thioether, 10% (v/v) of methanol, 0.2 mmol/L of NADP^+ and 10 g/L of glucose were added. […] Then, the residue was dissolved in 0.5 ml of isopropanol, and the solution was analyzed in accordance with the method of Example 7 for measuring the conversion of reaction and the ee value of product. […]

[3] = test system: BoTEMO-M1; assay: Asymmetric oxidation of lansoprazole thioether by BoTEMO-M1; type: biochemical, Bradyrhizobium oligotrophicum ECU1212; settings: 10 g/L substrate, 25° C., 24 h
Method: (§1) To 100 ml Tris-HCl buffer (100 mmol/L, pH 9.0) was added 1 g of lyophilized crude enzyme powders of BoTEMO-M1 and 0.2 g crude enzyme of glucose dehydrogenase. Lansoprazole thioether, methanol, NADP^+ and glucose were added to the final concentrations of 10 g/L, 10% (v/v), 0.2 mmol/L and 15 g/L, respectively. The reaction was stirred at 25° C. and 180 rpm for 24 h. When the lansoprazole thioether was asymmetrically catalytically oxidized to (R)-lansoprazole, the resultant conversion of the reaction was above 99%, and the ee value of product was above 99% (R).
as §1, with “To 2 L” for “To 100 ml”, “added 20” for “added 1”, “g” for “g of”, “and 4” for “and 0.2”, “of” for “of the”, “(R). Separation by extraction gave […] of the product (R)-lansoprazole, and the yield was 86%.” for “(R).”

[4] = test system: BoTEMO-M2; assay: Asymmetric oxidation of lansoprazole thioether by BoTEMO-M2; type: biochemical, Bradyrhizobium oligotrophicum ECU1212; settings: BoTEMO-M2 powders in 100 ml, 3 g/L substrate, 25° C., 24 h
Method: as §1, with “added” for “added 1 g of”, “of BoTEMO-M2” for “of BoTEMO-M1”, “of 3” for “of 10”, “and 5.4” for “and 15”

[5] = test system: engineered cyclohexanone monooxygenase (CHMO); settings: substrate loading 1.5 g/L, after 17 h; cited from earlier work

## Cc1c(OCC(F)(F)F)ccnc1CSc1nc2ccccc2[nH]1 [lansoprazole thioether]
[1]
  conversion rate: up to 80%
[2]
  conversion of reaction: above 99%
[3]; 1 g BoTEMO-M1 powders in 100 ml
  conversion of the reaction: above 99%
[3]; 20 g BoTEMO-M1 powders in 2 L
  conversion of reaction: above 99%
[4]
  conversion of the reaction: above 99%
[5]
  conversion: 1.2%
